Laboratory results taken from patent publication US9486461B2, “Methods and compositions for inducing apoptosis by stimulating ER stress” (UNIVERSITY OF SOUTHERN CALIFORNIA, priority 2007, dated 2016).
Entries after “also recorded” stand apart in the source; their conditions may differ.

Columns and labels:
[1] = system: CHOP protein in U87 glioblastoma tumor tissue; conditions: shown previously (ref. 39); cited from earlier work
U251 glioblastoma cells [2] = assay: Colony forming assay, U251; type: cell-based, human; conditions: U251, 30 and 50 μmol/L, 48 hours
Method: U251 glioblastoma cells were treated with different drugs, and various parameters of cell growth and cell death were comparatively analyzed. As controls, cells remained either non-treated (Co) or were treated with the solvent DMSO alone. (FIG. 8A) Cells were treated with 30 or 50 μM DMC for 48 hours and the effects on cell growth/survival and on cell death were determined by various assays. […] Below the three panels, the expression levels of the ER stress indicators CHOP, GRP78, and caspase 4 at the end of the 48 hour drug treatment is shown, as determined by Western blot analysis with specific antibodies (actin served as a loading control. (FIG. 8B) Cells were treated with various concentrations of different drugs for 48 hours, as indicated, and cell death was measured with the cell death ELISA kit. (FIG. 8C) Cells were treated with DMC or various coxibs and traditional NSAIDs for 48 hours, as indicated, and cell growth and survival was determined with the conventional MTT assay (control, non-treated cells were set at 100%). […] In parallel, the expression levels of CHOP and GRP78 protein were determined by Western blot analysis.
Twenty-four hours after transfection with small interfering RNA (siRNA), the cells were seeded into six-well plates at 200 cells per well. […] Colonies were visualized by staining for 4 h with 1% methylene blue (in methanol) and then counted.

U87 glioblastoma tumors [3] = assay: TUNEL assay of xenograft tumor tissue
[4] = system: Tumor-associated Brain Endothelial Cells (TuBEC); assay: Trypan blue exclusion, tumor-associated brain endothelial cells; type: cell-based; conditions: TMZ 300 uM and 20 uM DMC, 48 hours, then 12 days without drug
Method: After drug treatment the cells were incubated for another 12 days in the absence of drug, in order to determine their long-term survival; at that time cytotoxicity was evaluated using the trypan blue exclusion technique. Results are presented as number of viable cells per group.
Tumor-associated Brain Endothelial Cells (TuBEC) were treated with TMZ (300 uM) and 20 uM DMC for 48 hours. The drugs were removed and cells were incubated for another 12 days; at that time cytotoxicity was evaluated using the trypan blue exclusion technique. Results are presented as number of viable cells per group.

U87 glioblastoma tumors [5] = assay: Tumor growth in xenograft nude mouse model; type: in vivo, nude mice; conditions: daily chow for DMC, 40 mg/kg for rofecoxib, n=5
Method: Once palpable tumors had formed, the animals received daily chow supplemented with DMC, rofecoxib, or no drug. Tumor size was determined every three days. Shown is the average (mean±SD) tumor volume in each group (n=5). Asterisks (**): p<0.01 between control and DMC-treated animals on day 42.

U251 glioblastoma cells [6] = assay: TUNEL assay in cell culture, U251; type: cell-based, human; conditions: U251, 30 and 50 μmol/L, 48 hours
Method: (§1) U251 glioblastoma cells were treated with different drugs, and various parameters of cell growth and cell death were comparatively analyzed. As controls, cells remained either non-treated (Co) or were treated with the solvent DMSO alone. (FIG. 8A) Cells were treated with 30 or 50 μM DMC for 48 hours and the effects on cell growth/survival and on cell death were determined by various assays. […] Below the three panels, the expression levels of the ER stress indicators CHOP, GRP78, and caspase 4 at the end of the 48 hour drug treatment is shown, as determined by Western blot analysis with specific antibodies (actin served as a loading control. (FIG. 8B) Cells were treated with various concentrations of different drugs for 48 hours, as indicated, and cell death was measured with the cell death ELISA kit. (FIG. 8C) Cells were treated with DMC or various coxibs and traditional NSAIDs for 48 hours, as indicated, and cell growth and survival was determined with the conventional MTT assay (control, non-treated cells were set at 100%). MTT assays were performed in 96-well plates with the use of 3.0-8.0×10^3 cells per well as described in detail elsewhere (34). In parallel, the expression levels of CHOP and GRP78 protein were determined by Western blot analysis.
We next investigated the relationship of ER stress induction and cell death. […]

[7] = system: CHOP, GRP78, caspase 4 in U251 glioblastoma cells; assay: Western blot of ER stress indicators in U251 cells; type: cell-based, human; conditions: U251, 30 and 50 μmol/L, 48 hours
purified COX-2 protein = biological target: T1, purified COX-2 protein (Homo sapiens, UniProt P35354); assay: COX-2 inhibition in vitro with purified COX-2 protein; type: biochemical
T1 sequence (P35354 18-604): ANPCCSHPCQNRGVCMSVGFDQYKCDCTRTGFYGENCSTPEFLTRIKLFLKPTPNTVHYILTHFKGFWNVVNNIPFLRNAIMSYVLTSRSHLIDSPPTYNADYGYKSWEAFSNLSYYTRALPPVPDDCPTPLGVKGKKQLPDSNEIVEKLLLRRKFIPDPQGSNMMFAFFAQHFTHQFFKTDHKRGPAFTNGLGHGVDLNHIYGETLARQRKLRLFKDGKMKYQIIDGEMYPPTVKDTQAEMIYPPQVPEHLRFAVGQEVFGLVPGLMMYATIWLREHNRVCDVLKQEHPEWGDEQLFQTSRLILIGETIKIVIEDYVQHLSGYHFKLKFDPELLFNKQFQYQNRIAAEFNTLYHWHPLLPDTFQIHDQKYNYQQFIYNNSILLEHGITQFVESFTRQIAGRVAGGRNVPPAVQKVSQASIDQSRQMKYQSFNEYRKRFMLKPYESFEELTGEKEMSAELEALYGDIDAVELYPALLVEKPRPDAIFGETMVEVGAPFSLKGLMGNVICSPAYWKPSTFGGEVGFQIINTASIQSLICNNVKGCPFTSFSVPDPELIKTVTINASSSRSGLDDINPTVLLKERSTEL
Method: Bortezomib was obtained from the pharmacy as 3.5 mg Velcade suspended in 3.5 mL saline (Millennium Pharmaceuticals).

U251 glioblastoma cells [8] = assay: Cell death ELISA, U251; type: cell-based, human; conditions: U251, 48 hours, concentrations of up to 100 μmol/L
Method: as §1
Apoptosis in cell cultures in vitro was determined by using the Cell Death Detection ELISA kit (Roche Diagnostics, Indianapolis, Ind.) according to the manufacturer's instructions. This immunoassay specifically detects the histone region (H1, H2A, H2B, H3, and H4) of mononucleosomes and oligonucleosomes that are released during apoptosis. Ninety-six-well plates were seeded with 1,000 cells per well and read at 405 nm in a Microplate Autoreader (Model EL 311 SX; Bio-Tek Instruments, Inc., Winooski, Vt.).

Row | SMILES | dosage at which ER stress in tumor tissue in vivo begins to appear [1] [mg/kg] | survival in colony-forming assays (U251 glioblastoma cells [2]) | TUNEL staining of tumor tissue (U87 glioblastoma tumors [3]; U87MG xenograft, 1 mg/kg BZM and 7.5 mg/kg DMC individually or in combination, 50 h) | apoptosis in the tumor tissue (U87 glioblastoma tumors [3]; U87 xenograft, short-term drug treatment) | susceptibility of tumor vascular endothelial cells to TMZ [4] | tumor growth on longer-term therapy (U87 glioblastoma tumors [5]) | apoptosis (TUNEL) (U251 glioblastoma cells [6]) | stimulation of the ESR (CHOP, GRP78, caspase-4 cleavage) [7] | COX-2-inhibitory activity (purified COX-2 protein) | induction of cell death/apoptosis (cell death ELISA) (U251 glioblastoma cells [8])
1 | Cc1ccc(C)c(-c2cc(C(F)(F)F)nn2-c2ccc(S(N)(=O)=O)cc2)c1 [DMC, 4-[5-(2,5-dimethylphenyl)-3-(trifluoromethyl)-1H-pyrazol-1-yl]benzenesulfonamide] | > 10 | greatly reduced survival | nor did it substantially increase TUNEL staining | significantly increased apoptosis | increased the susceptibility | significantly reduced tumor growth | substantially increased apoptosis | potently stimulated the ESR | lacks the ability to inhibit COX-2; also recorded: lack thereof | 
2 | Cc1ccc(-c2cc(C(F)(F)F)nn2-c2ccc(S(N)(=O)=O)cc2)cc1 [celecoxib, 4-[5-(4-methylphenyl)-3-(trifluoromethyl)-1H-pyrazol-1-yl]benzenesulfonamide] |  |  |  |  |  |  |  |  |  | able to induce cell death/apoptosis
